Measurements published in US20240165055A1, “TREATMENT” (Verona Pharma PLC, priority 2022, published 2024).

Tested on: patients with moderate to severe COPD
Experiment: Multi-centre, randomized, double-blind, placebo-controlled clinical study of nebulised ensifentrine in COPD (spirometry, FEV1)
Type: in vivo
Settings: 3 mg BID by nebuliser
Description: A clinical study was conducted to determine the efficacy of ensifentrine in treating COPD compared with placebo. Ensifentrine was administered by nebuliser at a dose of 3 mg twice daily (BID) for 24 weeks. The study was a multi-centre, randomized, double-blind, parallel-group, placebo-controlled trial with around 800 patients and 5:3 randomization.
The study population included patients aged 40-80 years with moderate to severe COPD (FEV130%-70% p.n., FEVi/forced vital capacity [FVC] ratio <0.7, with mMRC ≥2). The randomization stratified (a) the use of stable background maintenance LAMA or LABA therapy use (approx. 50%. yes or no) and (b) cigarette smoking (current or former). Inhaled corticosteroid (ICS) maintenance therapy was permitted in up to 20% of patients under certain provisions.
The primary endpoint of the study was change from baseline in average FEV1 area under the curve (AUC)0-12h post-dose at week 12. Secondary endpoints of the study included: peak FEV1 over 4 hours post-dose at Week 12; morning trough FEV1 at Week 12; and other endpoints including moderate/severe COPD exacerbations frequency over 24 Weeks.
Baseline FEV1 is the mean of the two measurements taken before study medication on the day of first dosing, i.e. ≤40 minutes and just prior to dosing, pre-dose on day 1.
Average FEV1 AUCO-12h is defined as area under the curve over 12 hours of the FEV1, divided by 12 hours.
Morning trough FEV1 at Week 12 is defined as the FEVi assessed at 11.5 to 12 hours following the prior evening dose.
The investigational product and placebo were provided in 2.5 mL unit dose format in an ampule and administered via a nebuliser.

With COc1cc2c(cc1OC)-c1c/c(=N\c3c(C)cc(C)cc3C)n(CCNC(N)=O)c(=O)n1CC2 [Ensifentrine] the “Morning Trough FEV1 Week 12: CFB Least Squares Mean, mL (95% CI)” value (Week 12, FEV1 at 11.5 to 12 hours following the prior evening dose) was 6.3 (−12.3, 24.9) mL, the “Morning Trough FEV1 Week 12: Placebo-corrected CFB LS Mean Diff., mL (95% CI)” value (Week 12, versus placebo) was 48.9 (18.3, 79.5) mL and the “Improvement in lung function in all subgroups (average FEV1 (AUC)0-12h at Week 12), result in words” value (all subgroups) was “All subgroups showed improvement in lung function with ensifentrine that was statistically significant”. For the same compound, the “Morning trough FEV1 at week 12, result in words” value (week 12) was “statistically significant effect”.
